# Patent EP2815749A1, “Solid form of 4-amino-2-(2,6-dioxopiperidine-3-yl)isoindoline-1,3-dione having specified X-ray diffraction pattern” (IP Gesellschaft für Management mbH, priority 2013, dated 2014)
# Where two headings read alike, the source gives them in different places.
# How the values were obtained:
# [1] = Solubility of pomalidomide in various solvents; format: physicochemical; settings: ambient temperature
# Method: Pomalidomide Polymorph Preparations: A weighed sample of pomalidomide (about 100 mg) was treated with 2 mL of a test solvent. The solvents used were either reagent or HPLC grade. The resulting mixture was agitated for at least 24 hours at 25°C. When all of the solids were dissolved by visual inspection, the estimated solubilities were calculated. The solubility was estimated from these experiments based on the total volume of solvent used to give a solution. The actual solubility may be greater than those calculated due to the use of a large amount of solvent or to a slow rate of dissolution. […] A known volume of filtrate was evaporated to dryness and the weight of the residue was measured. Equilibration and evaporation experiments were carried out by adding an excess of pomalidomide to 4 mL of a test solvent. The resulting mixture was agitated for at least 24 hours at 25°C and 50°C separately. Upon reaching equilibrium, the saturated solution was removed and allowed to evaporate slowly in an open vial under nitrogen at 25°C and 50°C respectively. The slurry resulting from the equilibration was filtered and dried in the air. Crystallizations using cooling methods were performed. The solid was dissolved in a solvent at an elevated temperature, approximately 80°C and allowed to cool to room temperature. […] Solids were isolated by decantation and allowed to dry in the air. Precipitation studies were carried out by solvent/anti-solvent combinations. The solid was dissolved in a solvent in which pomalidomide solubility was high, and then a selected solvent in which pomalidomide was highly insoluble (anti-solvent) was added to the solution. A precipitate formed immediately in some solvent/anti-solvent systems. […] The precipitate was then isolated by decantation and allowed to dry in the air. All of the samples generated as described in the polymorph preparation study were analyzed by XRPD. X PD was conducted on a Thermo ARL X'TRA X-ray powder diffractometer using Cu Kcc radiation at 1.54 A. The instrument was equipped with a fine focus X-ray tube. The voltage and amperage of X-ray generator were set at 45 kV and 40 mA, respectively. The divergence slices were set at 4 mm and 2 mm and the measuring slices were set at 0.5 mm and 0.2 mm. Diffracted radiation was detected by peitier-cooled Si(Li) solid state detector. A theta-two theta continuous scan at 2.40°/min (0.5 sec/0.02c step) from 1.5° 20 to 40° 2.0 was used. A sintered alumina standard was used to check the peak position. DSC analyses were performed on a TA instrument Q1000. Indium was used as calibration standards. Approximately 2-5 mg of sample was placed into a DSC pan and the weight was accurately recorded. The sample was heated under nitrogen at a rate of 10°C/min, up to a final temperature of 350°C. Melting points were reported as extrapolated onset temperature. TG analyses were performed on a TA instrument Q500. Calcium oxalate was used for performance check. Approximately 10-25 mg of sample was placed on a pan, accurately weighed and loaded into the TG furnace. The sample was heated under nitrogen at a rate of 10°C/min, up to a final temperature of 350°C. Morphology and particle size analysis of the samples were carried out on an Olympus microscope. The instrument was calibrated with USP standards. Hygroscopicity was determined on a Surface Measurement Systems DVS. Typically a sample size of 10-50 mg was loaded into the DVS instrument sample pan and the sample was analyzed on a DVS automated sorption analyzer at 25°C. The relative humidity was increased in 10% increments from 0% to 95% RH. The relative humidity was then decreased in a similar mariner to accomplish a full adsosption/desorption cycle. […]
# [2] = Approximate solubility of pomalidomide at 50°C in 96 solvent compositions (LC); format: physicochemical; settings: binary solvent composition (main solvent and co-solvent), 50 °C, organic solvent or mixture, thermodynamic from solid
# Method: Pomalidomide Solid Form Preparations: Preparation of solid form of pomalidomide was conducted by equilibrating pomalidomide in 96 solvent compositions at 50°C and subjected to four conditions: slurry, evaporation, cooling, and precipitation. […] Solvents were then added, as binary gradients consisting of main solvent and co-solvent, to give a total of 150 µl, in each of the 96 vials (see Table 6 for the exact composition of each vial). […] For each of the evaporation, precipitation, and cooling experiments, approximately 8 mg of a solid sample of pomalidomide (e.g., Form A) was delivered to each position of the plate. Solvents were added to the master plate, as binary gradients consisting of main solvent and co-solvent, to give a total volume of 800 µT in each of the 96 vials (see Table 7 for the exact composition of each vial). The master plate, containing pomalidomide and solvents, was then equilibrated by stirring for 2 hours at 50°C. Upon completion of the equilibration cycle, the supernatant was aspirated into a four-tipped needle assembly and transferred to a sealed parallel filtration assembly. The mixtures were forced through the filtration assembly using positive pressure and the filtrates were collected in an array of glass vials. The filtered solutions were subsequently aspirated into the four-tipped assembly and aliquots were dispensed to an array of glass vials for subsequent LC analysis to determine approximate concentrations of pomalidomide in each solvent composition at the beginning of the experiments (Table 8). Both the four-tipped needle assembly and filtration assembly were maintained at the equilibration temperature of 50°C throughout the entire transfer process.
# The results correspond to the solvent systems described in Table 7, equilibrated at 50°C for 2 hours. […] The approximate concentrations were determined by LC.
structure (smiles),measurement,setting,value
"Nc1cccc2c1C(=O)N(C1CCC(=O)NC1=O)C2=O (centres unmarked) [Pomalidomide, 4-amino-2-(2,6-dioxopiperidine-3-yl)isoindoline-1,3-dione]",solubility,[1]; Methyl t-butyl ether,1030 µg/mL
same,solubility,"[1]; acetone, 25 °C, organic solvent or mixture, thermodynamic from solid, Acetone, read-out: Solubility",1990 µg/mL
same,solubility,"[1]; acetonitrile, 25 °C, organic solvent or mixture, thermodynamic from solid, Acetonitrile, read-out: Solubility",1270 µg/mL
same,solubility,"[1]; ethanol/water (1:1), 25 °C, aqueous with cosolvent or surfactant or cyclodextrin, thermodynamic from solid, Ethanol/Water (1:1), read-out: Solubility",540 µg/mL
same,solubility,"[1]; methyl ethyl ketone, 25 °C, organic solvent or mixture, thermodynamic from solid, Methyl ethyl ketone, read-out: Solubility",1260 µg/mL
same,solubility,"[1]; methyl t-butyl ether, 25 °C, organic solvent or mixture, thermodynamic from solid, Methyl t-butyl ether, read-out: Solubility",< 1000 µg/mL
same,solubility,"[1]; methylene chloride, 25 °C, organic solvent or mixture, thermodynamic from solid, Methylene chloride, read-out: Solubility",1450 µg/mL
same,solubility,"[1]; tetrahydrofuran, 25 °C, organic solvent or mixture, thermodynamic from solid, Tetrahydrofuran, read-out: Solubility",5260 µg/mL
same,solubility at 2 h,"[2]; solvent system A4 of Table 7, read-out: Approximate Measured Solubility",1440 µg/mL
same,solubility at 2 h,"[2]; solvent system A5 of Table 7, read-out: Approximate Measured Solubility",800 µg/mL
same,solubility at 2 h,"[2]; solvent system A6 of Table 7, read-out: Approximate Measured Solubility",280 µg/mL
same,solubility at 2 h,"[2]; solvent system A7 of Table 7, read-out: Approximate Measured Solubility",6980 µg/mL
same,solubility at 2 h,"[2]; solvent system A8 of Table 7, read-out: Approximate Measured Solubility",7940 µg/mL
same,solubility at 2 h,"[2]; solvent system A9 of Table 7, read-out: Approximate Measured Solubility",4410 µg/mL
same,solubility at 2 h,"[2]; solvent system B1 of Table 7, read-out: Approximate Measured Solubility",230 µg/mL
same,solubility at 2 h,"[2]; solvent system B2 of Table 7, read-out: Approximate Measured Solubility",790 µg/mL
same,solubility at 2 h,"[2]; solvent system B3 of Table 7, read-out: Approximate Measured Solubility",1030 µg/mL
same,solubility at 2 h,"[2]; solvent system B4 of Table 7, read-out: Approximate Measured Solubility",220 µg/mL
same,solubility at 2 h,"[2]; solvent system B5 of Table 7, read-out: Approximate Measured Solubility",360 µg/mL
same,solubility at 2 h,"[2]; solvent system B6 of Table 7, read-out: Approximate Measured Solubility",150 µg/mL
same,solubility at 2 h,"[2]; solvent system B7 of Table 7, read-out: Approximate Measured Solubility",3160 µg/mL
same,solubility at 2 h,"[2]; solvent system B8 of Table 7, read-out: Approximate Measured Solubility",1720 µg/mL
same,solubility at 2 h,"[2]; solvent system B9 of Table 7, read-out: Approximate Measured Solubility",920 µg/mL
same,solubility at 2 h,"[2]; solvent system B10 of Table 7, read-out: Approximate Measured Solubility",480 µg/mL
same,solubility at 2 h,"[2]; solvent system B11 of Table 7, read-out: Approximate Measured Solubility",180 µg/mL
same,solubility at 2 h,"[2]; solvent system C1 of Table 7, read-out: Approximate Measured Solubility",620 µg/mL
same,solubility at 2 h,"[2]; solvent system C2 of Table 7, read-out: Approximate Measured Solubility",1410 µg/mL
same,solubility at 2 h,"[2]; solvent system C3 of Table 7, read-out: Approximate Measured Solubility",1670 µg/mL
same,solubility at 2 h,"[2]; solvent system C4 of Table 7, read-out: Approximate Measured Solubility",480 µg/mL
same,solubility at 2 h,"[2]; solvent system C5 of Table 7, read-out: Approximate Measured Solubility",470 µg/mL
same,solubility at 2 h,"[2]; solvent system C6 of Table 7, read-out: Approximate Measured Solubility",260 µg/mL
same,solubility at 2 h,"[2]; solvent system C7 of Table 7, read-out: Approximate Measured Solubility",3710 µg/mL
same,solubility at 2 h,"[2]; solvent system C8 of Table 7, read-out: Approximate Measured Solubility",2970 µg/mL
same,solubility at 2 h,"[2]; solvent system C9 of Table 7, read-out: Approximate Measured Solubility",1840 µg/mL
same,solubility at 2 h,"[2]; solvent system C10 of Table 7, read-out: Approximate Measured Solubility",1090 µg/mL
same,solubility at 2 h,"[2]; solvent system C11 of Table 7, read-out: Approximate Measured Solubility",490 µg/mL
same,solubility at 2 h,"[2]; solvent system C12 of Table 7, read-out: Approximate Measured Solubility",340 µg/mL
same,solubility at 2 h,"[2]; solvent system D1 of Table 7, read-out: Approximate Measured Solubility",1530 µg/mL
same,solubility at 2 h,"[2]; solvent system D2 of Table 7, read-out: Approximate Measured Solubility",670 µg/mL
same,solubility at 2 h,"[2]; solvent system D3 of Table 7, read-out: Approximate Measured Solubility",3460 µg/mL
same,solubility at 2 h,"[2]; solvent system D4 of Table 7, read-out: Approximate Measured Solubility",2500 µg/mL
same,solubility at 2 h,"[2]; solvent system D5 of Table 7, read-out: Approximate Measured Solubility",1940 µg/mL
same,solubility at 2 h,"[2]; solvent system D6 of Table 7, read-out: Approximate Measured Solubility",490 µg/mL
same,solubility at 2 h,"[2]; solvent system D7 of Table 7, read-out: Approximate Measured Solubility",3700 µg/mL
same,solubility at 2 h,"[2]; solvent system D8 of Table 7, read-out: Approximate Measured Solubility",2310 µg/mL
same,solubility at 2 h,"[2]; solvent system D10 of Table 7, read-out: Approximate Measured Solubility",560 µg/mL
same,solubility at 2 h,"[2]; solvent system D11 of Table 7, read-out: Approximate Measured Solubility",1160 µg/mL
